Results published in patent US12162848B2, “Inhibitors of protein tyrosine phosphatase, compositions, and methods of use” (BRISTOL-MYERS SQUIBB COMPANY, priority 2022, dated 2024).

What was measured:
PTPN2 enzyme = molecular target: T1, PTPN2 enzyme (Homo sapiens, UniProt P17706); experiment: PhosphoSens PTPN2 biochemical assay; settings: substrate AQT0264 20 μM, room temperature; read-out: PTPN2 BCHEM IC50
T1 sequence (P17706 1-415): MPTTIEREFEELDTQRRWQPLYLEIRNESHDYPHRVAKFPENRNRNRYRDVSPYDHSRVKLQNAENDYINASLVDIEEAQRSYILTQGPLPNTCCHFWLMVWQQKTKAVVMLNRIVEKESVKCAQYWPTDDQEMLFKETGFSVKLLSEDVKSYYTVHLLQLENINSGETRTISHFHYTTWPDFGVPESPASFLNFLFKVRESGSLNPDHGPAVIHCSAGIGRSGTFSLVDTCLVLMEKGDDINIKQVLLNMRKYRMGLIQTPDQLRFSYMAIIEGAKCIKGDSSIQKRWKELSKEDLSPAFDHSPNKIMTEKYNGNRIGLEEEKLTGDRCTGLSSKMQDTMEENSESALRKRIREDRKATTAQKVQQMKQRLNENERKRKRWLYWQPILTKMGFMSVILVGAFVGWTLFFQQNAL
Description: A PhosphoSens® kinase assay was performed as described by the vendor (AssayQuant Technologies, Marlborough, MA). Briefly, 1000×solutions of compounds were prepared in DMSO via serial dilution of the 10 mM DMSO stocks using 3-fold intervals in a 384-well reagent plate. 50 nL of the compound dilution series was then added to the corresponding wells of a 384-well assay plate. […] of 1.25×substrate (AQT0264) in 1× assay buffer (50 mM HEPES pH 7.5, 500 μM EGTA, […] MgCl2, 0.01% Brij-35, 1% Glycerol, 1 mM DTT, and 0.2 mg/mL BSA) was transferred to each well of the assay plate to achieve a final substrate concentration of 20 μM. Finally, […] of 5×PTPN2 enzyme stock was added to each well of the assay plate for a final enzyme concentration of […]. Reaction progress curves were collected by sampling fluorescence intensity at the excitation wavelength 360 nm (λex360) and emission wavelength 480 nm (λem480) every 71 seconds for one hour using a Synergy H4 plate reader (BioTek Instruments/Agilent Technologies, Winooski, VT) at room temperature.

[1] = tested on: phosphorylated STAT1 protein levels in B16-F10 cells; experiment: Phospho-STAT1 (Tyr701) HTRF assay in IFN-gamma treated B16-F10 cells; format: cell-based; settings: mouse IFN-gamma 100 ng/mL, 1 hour, read-out: pSTAT1 HTRF B16 EC50
Description: B16-F10 cells (ATCC, Manassas, VA, #CRL-6475) were cultured in DMEM growth medium (ThermoFisher Scientific, Waltham, MA, #11995-040) supplemented with 10% heat inactivated FBS (ThermoFisher Scientific, #16140-071) and 1% pen/strep (ThermoFisher Scientific, #15140-122). The cells were seeded into a white opaque 384-well tissue culture treated microplate (PerkinElmer, Waltham, MA, #6007688) at a density of 10,000 cells/well in 20 uL total volume and incubated overnight at 37 C and 5% CO2. 30 nL of compounds dissolved in DMSO were then transferred from a source plate into target wells with the Echo650 acoustic liquid handler (Beckman Coulter, Indianapolis, IN). Negative control wells received 30 nL of DMSO only (0.15% final concentration). Plates were returned to the incubator for 1 hour and then cells treated with either 5 uL of growth medium or 5 uL of growth medium containing 500 ng/mL of recombinant mouse IFN-gamma protein (R&D Systems, Minneapolis, MN, #485-MI/CF, 100 ng/mL final concentration) using the Assist automated pipetting platform (INTEGRA Biosciences, Hudson, NH). Plates were incubated at 37 C for 1 hour and assayed for phosphorylated STAT1 protein levels with the phospho-STAT1 (Tyr701) HTRF kit (Cisbio, Bedford, MA, #63ADK026PEH) according to manufacturer's instructions.

B16-F10 cells = experiment: Cell proliferation assay (CellTiter-Glo) in IFN-gamma treated B16-F10 cells; format: cell-based; settings: 120 h, mouse IFN-gamma 10 ng/mL, read-out: PTPN2 Prolif 5d B16F10 EC50
Description: B16-F10 cells (ATCC, Manassas, VA, #CRL-6475) were cultured in DMEM growth medium (ThermoFisher Scientific, Waltham, MA, #11995-040) supplemented with 10% heat inactivated FBS (ThermoFisher Scientific, #16140-071) and 1% pen/strep (ThermoFisher Scientific, #15140-122). The cells were seeded into two white opaque 384-well tissue culture treated microplates (PerkinElmer, Waltham, MA, #6007688) at a density of 100 cells/well in 20 uL total volume and incubated overnight at 37 C and 5% CO2. 30 nL of compounds dissolved in DMSO were then transferred from a source plate into target wells with the Echo650 acoustic liquid handler (Beckman Coulter, Indianapolis, IN). Negative control wells received 30 nL of DMSO only (0.15% final concentration). Plates were returned to the incubator for 1 hour and then cells treated with either 5 uL of growth medium or 5 uL of growth medium containing 50 ng/mL of recombinant mouse IFN-gamma protein (R&D Systems, Minneapolis, MN, #485-MI/CF, 10 ng/mL final concentration) using the Assist automated pipetting platform (INTEGRA Biosciences, Hudson, NH). Plates were incubated at 37 C for 4 days and cell proliferation assayed with the CellTiter-Glo reagent (Promega, Madison, WI, #G7573, 25 uL per well). […] Off-target compound mediated cytotoxicity was identified by checking for growth inhibition in the absence of IFNg.

Structure (SMILES)	IC50 (PTPN2 enzyme) [µM]	EC50 [1] [µM]	EC50 (B16-F10 cells) [µM]
O=C1CN(c2c(O)cc(C3CCCNC3)cc2F)S(=O)(=O)N1 (stereo not shown) [EXAMPLE 1, 5-(2-fluoro-6-hydroxy-4-(piperidin-3-yl)phenyl)-1,2,5-thiadiazolidin-3-one 1,1-dioxide]	0.119	1.28	0.882
CN1CCC(c2cc(O)c(N3CC(=O)NS3(=O)=O)c(F)c2)CC1 [EXAMPLE 4, 5-[2-fluoro-6-hydroxy-4-(1-methyl-4-piperidyl)phenyl]-1,1-dioxo-1,2,5-thiadiazolidin-3-one]	0.807	≥ 15	≥ 15
CC(C)CCN1CCCC(c2cc(O)c(N3CC(=O)NS3(=O)=O)c(F)c2)C1 (stereo not shown) [EXAMPLE 5, 5-(2-fluoro-6-hydroxy-4-(1-isopentylpiperidin-3-yl)phenyl)-1,2,5-thiadiazolidin-3-one 1,1-dioxide]	1.02	≥ 15	≥ 15
O=C1CN(c2c(O)cc(-c3ccccn3)cc2F)S(=O)(=O)N1 [EXAMPLE 7, 5-(2-fluoro-6-hydroxy-4-(pyridin-2-yl)phenyl)-1,2,5-thiadiazolidin-3-one 1,1-dioxide]	0.568	≥ 15	≥ 15
CC(=O)N1CCC[C@@H](NCc2cc(O)c(N3CC(=O)NS3(=O)=O)c(F)c2)C1 [EXAMPLE 68, 5-[4-[[[(3R)-1-acetyl-3-piperidyl]amino]methyl]-2-fluoro-6-hydroxy-phenyl]-1,1-dioxo-1,2,5-thiadiazolidin-3-one]	0.032	6.68	
O=C1CN(c2c(O)cc(CN[C@@H]3CCCN(S(=O)(=O)c4cccc(F)c4)C3)cc2F)S(=O)(=O)N1 [EXAMPLE 69, 5-[2-fluoro-4-[[[(3R)-1-(3-fluorophenyl)sulfonyl-3-piperidyl]amino]methyl]-6-hydroxy-phenyl]-1,1-dioxo-1,2,5-thiadiazolidin-3-one]	0.088	≥ 15	
O=C1CN(c2c(O)cc(CN[C@H]3CCCN(S(=O)(=O)c4cccc(F)c4)C3)cc2F)S(=O)(=O)N1 [EXAMPLE 70, 5-[2-fluoro-4-[[[(3S)-1-(3-fluorophenyl)sulfonyl-3-piperidyl]amino]methyl]-6-hydroxy-phenyl]-1,1-dioxo-1,2,5-thiadiazolidin-3-one]	0.03	≥ 15	
CCCN(Cc1cc(O)c(N2CC(=O)NS2(=O)=O)c(F)c1)CC1CCC1 [EXAMPLE 78, 5-[4-[[cyclobutylmethyl(propyl)amino]methyl]-2-fluoro-6-hydroxy-phenyl]-1,1-dioxo-1,2,5-thiadiazolidin-3-one]	0.806	≥ 15	
N#Cc1ccc(Cl)c(NCc2cc(O)c(N3CC(=O)NS3(=O)=O)c(F)c2)c1 [EXAMPLE 81, 4-chloro-3-[[3-fluoro-5-hydroxy-4-(1,1,4-trioxo-1,2,5-thiadiazolidin-2-yl)phenyl]methylamino]benzonitrile]		≥ 15	≥ 15
O=C1CN(c2c(O)cc(CNc3cc(C4CC4)ccn3)cc2F)S(=O)(=O)N1 [EXAMPLE 82, 5-[4-[[(4-cyclopropyl-2-pyridyl)amino]methyl]-2-fluoro-6-hydroxy-phenyl]-1,1-dioxo-1,2,5-thiadiazolidin-3-one]	0.01	0.197	
CN(C)CCNC(=O)c1cc(O)c(N2CC(=O)NS2(=O)=O)c(F)c1 [EXAMPLE 91, N-(2-(dimethylamino)ethyl)-4-(1,1-dioxido-4-oxo-1,2,5-thiadiazolidin-2-yl)-3-fluoro-5-hydroxybenzamide]		≥ 15	≥ 15
O=C1CN(c2c(O)cc(C(=O)NC3CCNCC3)cc2F)S(=O)(=O)N1 [EXAMPLE 92, 4-(1,1-dioxido-4-oxo-1,2,5-thiadiazolidin-2-yl)-3-fluoro-5-hydroxy-N-(piperidin-4-yl)benzamide]		≥ 15	≥ 15
O=C1CN(c2c(O)cc(C(=O)N[C@H]3CCCNC3)cc2F)S(=O)(=O)N1 [EXAMPLE 93, (S)-4-(1,1-dioxido-4-oxo-1,2,5-thiadiazolidin-2-yl)-3-fluoro-5-hydroxy-N-(piperidin-3-yl)benzamide]		≥ 15	≥ 15
O=C1CN(c2c(O)cc(C(=O)N[C@@H]3CCCNC3)cc2F)S(=O)(=O)N1 [EXAMPLE 94, (R)-4-(1,1-dioxido-4-oxo-1,2,5-thiadiazolidin-2-yl)-3-fluoro-5-hydroxy-N-(piperidin-3-yl)benzamide]		≥ 15	≥ 15

Now from value to molecule:

IC50 (PTPN2 enzyme) [µM]	EC50 [1] [µM]	EC50 (B16-F10 cells) [µM]	Structure (SMILES)
	≥ 15	≥ 15	CN(C)[C@H]1CC[C@H](NC(=O)c2cc(O)c(N3CC(=O)NS3(=O)=O)c(F)c2)CC1 [EXAMPLE 96, N-((1r,4r)-4-(dimethylamino)cyclohexyl)-4-(1,1-dioxido-4-oxo-1,2,5-thiadiazolidin-2-yl)-3-fluoro-5-hydroxybenzamide]
	≥ 15	≥ 15	CC1(C)CCC(NCc2ccc(O)c(N3CC(=O)NS3(=O)=O)c2F)CC1 [EXAMPLE 97, 5-(3-(((4,4-dimethylcyclohexyl)amino)methyl)-2-fluoro-6-hydroxyphenyl)-1,2,5-thiadiazolidin-3-one 1,1-dioxide]
	≥ 15	≥ 15	O=C1CN(c2c(O)ccc(CN3CCOCC3)c2F)S(=O)(=O)N1 [EXAMPLE 99, 5-(2-fluoro-6-hydroxy-3-(morpholinomethyl)phenyl)-1,2,5-thiadiazolidin-3-one 1,1-dioxide]
	≥ 15	≥ 15	O=C1CN(c2c(O)ccc(CNC3CCCCC3)c2F)S(=O)(=O)N1 [EXAMPLE 100, 5-(3-((cyclohexylamino)methyl)-2-fluoro-6-hydroxyphenyl)-1,2,5-thiadiazolidin-3-one 1,1-dioxide]
	≥ 15	≥ 15	O=C1CN(c2c(O)ccc(CNC3CCOCC3)c2F)S(=O)(=O)N1 [EXAMPLE 101, 5-(2-fluoro-6-hydroxy-3-(((tetrahydro-2H-pyran-4-yl)amino)methyl)phenyl)-1,2,5-thiadiazolidin-3-one 1,1-dioxide]
	≥ 15	≥ 15	CN1CCN(Cc2ccc(O)c(N3CC(=O)NS3(=O)=O)c2F)CC1 [EXAMPLE 103, 5-(2-fluoro-6-hydroxy-3-((4-methylpiperazin-1-yl)methyl)phenyl)-1,2,5-thiadiazolidin-3-one 1,1-dioxide]
	≥ 15	≥ 15	O=C1CN(c2c(O)ccc(C3CCNCC3)c2F)S(=O)(=O)N1 [EXAMPLE 105, 5-(2-fluoro-6-hydroxy-3-(piperidin-4-yl)phenyl)-1,2,5-thiadiazolidin-3-one 1,1-dioxide]
